The source of these data is patent US11617741B1, “Method for inhibiting growth of bacteria” (priority 2021, dated 2023).

One series deals with S. aureus 4220. Here is the method: MICs were determined essentially as previously described (Frohlich KM, Weintraub SF, Bell JT, Todd GC, Väre VYP, Schneider R, Kloos ZA, Tabe ES, Cantara WA, Stark CJ, Onwuanaibe UJ, Duffy BC, Basanta-Sanchez M, Kitchen DB, McDonough KA, Agris PF. 2019. Discovery of small-molecule antibiotics against a unique tRNA-mediated regulation of transcription in Gram-positive bacteria. ChemMedChem 14:758-769.). In short, cultures were grown overnight in the appropriate media, diluted to A620 of 0.1, grown for 3 hours, and again diluted to A620 of 0.1. Cultures were then diluted 10-fold, of which 5 μl were added to each well of the 96-well plate used for the experiment except the media control wells. The initial well inoculum was 7.5×10^5 bacteria for S. aureus and 2.5×10^5 bacteria for B. subtilis (bacterial numbers were measured by OD). The 96-well plate was organized as follows. Media (100 μl) were added to all wells. Stock solutions (100 μi) containing 2 times the highest concentration of antibiotics to be tested were loaded to column 1, with two technical repeats per drug. […] The following controls were included: vehicle control (DMSO, chloroform, ethanol, etc.), cells in plain media, and media control (no cells). The initial optical density (A620) of the 96-well plate was determined, the plate was grown for 16 to 24 hours, and at that time, the final optical densities (A620) were read. The initial reading was subtracted from the final reading, and the technical replicates were averaged. MICs of PKZ18 and analogs were compared to clinically used antibiotics such as gentamicin.

Series [1] concerns A549 human lung epithelial cells. As to the kind of experiment: alamarBlue cell redox activity. Conditions: 128 μg/ml, 48 hours. In kind it is cell-based. Here is the method: (§1) alamarBlue was purchased (Thermo Scientific) and used according to the manufacturer's directions. In short, 50,000 cells of either A549 or J774.16 were added into a 96-well plate in 200 μl and left to adhere overnight. As a control, we used a 96-well plate with the desired drugs at 2× the final concentrations in 160 μl without adding cells. The cells' medium was removed, and 100 μl fresh medium was added, followed by 100 μl of 2× drug from the corresponding wells in the drug plate. Media were added to the drug plate to reduce the concentrations to 1×, and the cells were incubated at 37° C. for 48 or 72 hours. alamarBlue was added at 10 μl per 100 μl, and the fluorescence of both plates at 590 nm was read after overnight incubation. The drug plate fluorescence was subtracted from the cells' plate respective values, and the data were normalized to untreated cells' reading. All plates included a vehicle control used as the 0-μg/ml value for each drug tested. All concentrations were tested in triplicate and included at least three biological replicates. A media control, untreated control, a killing control, and a vehicle control were always included. The cytotoxicity of synergistic or additive MICs of PKZ18 analogs and a common antibiotic (co-MIC) on eukaryotic cells was tested on A549 cells as above, but the two plates were set up identically to the checkerboard assay so that the final concentrations tested corresponded to those tested against MRSA.

Series [2] relates to J774.16 murine macrophages. As to the kind of experiment: alamarBlue cell redox activity. In kind it is cell-based. Particulars: for cellular redox activity: 64 μg/ml. Here is the method:
as §1
In general terms: Resazurin is reduced to fluorescent resorufin, in cell work by metabolically active cells.

The test system of the next series is glyQS T-box. As to the kind of experiment: qRT-PCR transcriptional read-through of T-box-regulated glyQS (confirmation of inhibition of T-box mechanism). In kind it is cell-based, Bacillus subtilis 1A5. Conditions: confirmation of inhibition of T-box mechanism from qRT-PCR assay. The source says: Sample preparation of RNA and cDNA.
Another series concerns E. coli. As to the kind of experiment: Minimum inhibitory and bactericidal concentration determination, Gram-negative control. In kind it is cell-based, Escherichia coli. As to the method:
(§2) The 96-well plate was organized as follows. Media (100 μl) were added to all wells.

For series [3], the target named is Bacillus subtilis glyQS T-box. Nature of the series: Binding to chemically synthesized truncated stem I construct. Particulars: truncated stem I construct of glyQS T-box.
For series [4], the system named is B. subtilis 168. Here is the method: Gentamicin on BHI agar was used as a control. In short, MRSA and B. subtilis were grown overnight in BHI, and 3-hour day cultures at the optical density of A620 of 0.1 were started for both organisms. The optical density after 3 hours of growth was measured; cultures were then pelleted and resuspended to give 10^11 CFU/ml by optical density. CFU of 10^11 per OD were plated in total; 100 μl of the cells were then plated on BHI agar containing either 128 μg/m1PKZ18 or 64 μg/m1PKZ18-22. Serial dilutions of the cells were plated on plain BHI agar in order to calculate the CFU/ml, which was calculated as the number of colonies found on the plates divided by the total number of bacteria plated. CFU means colony forming units, a measure of live bacteria.

The next series concerns S. aureus N315 (MRSA). Nature of the series: Antibiotic resistance frequency (fluctuation assay). In kind it is cell-based, Staphylococcus aureus. Particulars: MRSA. The source says:
Gentamicin on BHI agar was used as a control.

The subject of series [5] is B. subtilis 168. Nature of the series: Minimum inhibitory concentration determination. In kind it is cell-based, Bacillus subtilis. As to the method:
as §2

Series [6] concerns the target Bacillus subtilis tyrS T-box. Nature of the series: Binding to chemically synthesized truncated stem I construct. Particulars: truncated stem I construct of tyrS T-box.
Series [7] has as its system J774.16 murine macrophages. Nature of the series: Trypan blue cell viability counting. In kind it is cell-based. Conditions: 48 hours. As to the method: J774.16 cells were grown in J7 medium from a fresh passage in a 1:4 dilution of 70 to 80% confluent cells. The cells were allowed to adhere in 6-well plates overnight. The medium was replaced, and drugs were added to desired concentrations in a total volume of 5 ml/well. A media control, untreated control, a killing control of Triton X-100, and a vehicle control were always included. After 48 hours treatment, medium was removed, and fresh media and Trypan blue were added 1:1 in a final volume of 400 μl. Cells, 100 to 200, from two areas of each well were counted and the data averaged and normalized against untreated cells. The vehicle control served as the 0.0-μg/ml value. At least three biological replicates were included for each drug at each concentration.

Series [8] concerns S. aureus N315 (MRSA isolate). Nature of the series: Minimum inhibitory and bactericidal concentration determination. In kind it is cell-based, Staphylococcus aureus. As to the method: as §2
Series [9] has as its system B. subtilis glyQS Stem I specifier loop. As to the kind of experiment: UV-monitored thermodynamic stability measurements of stem I constructs. In kind it is binding, Bacillus subtilis. As to the method:
Thermodynamic parameters were derived from four UV-monitored destabilizations and four renaturations of chemically synthesized wild-type and mutant truncated B. subtilis glyQS Stem I specifier loops in the absence and presence of PKZ18 (10 mM Na2HPO4 and 10 mM KH2PO4; final pH 6.8). The absorbance was collected at 260 nm and was performed using a Varian Cary 3 UV-visible spectrophotometer equipped with a Peltier temperature control accessory. The temperature was increased at a rate of 1° C. per minute from 5 to 85° C. Absorbance data at 260 nm were collected as a function of temperature at a rate of four data points per minute. All experiments were performed simultaneously with a control cell containing buffer only. The error calculated is the error of the mean.

Series [10] has as its system S. aureus (ATCC 29213) biofilm. As to the kind of experiment: MBEC-HTP biofilm model, single agents, CFU recovery. Conditions: range of concentrations up to 1.024 mg/mL.
Procedure: An overnight culture of S. aureus (ATCC 29213) was diluted to 1×10^7 cells/mL in tryptic soy broth (TSB) supplemented with 10% human plasma (Innovative Research, Novi, Mich. USA) and added to the wells of an MBEC™-HTP Assay Biofilm Innoculator (Innovotech, Edmonton, AB, Canada). The plate was incubated overnight at 37° C. and shaken at 125 rpm. […] Control wells were without a COMPOUND OF Formula I. The treatment plate was incubated for 24 h at 37° C. after which the lid was removed, rinsed with PBS, and placed in a new 96-well plate containing TSB. The biofilm was removed from the assay lid into the recovery plate wells by sonication, a new plate cover was added, and the viability of the biofilm was determined after 24 h of incubation at 37° C. by reading the OD at 625 nm. Three independent experiments were conducted. Concentrations of interest were followed up with colony forming unit (CFU) recovery and scanning electron microscopy analysis. After conclusion of the MBEC assay, the minimum bactericidal concentration (MBC) was determined. […]
After rinsing in PBS, designated pegs were snapped off the lid using sterile tweezers and placed in 1.5 mL Eppendorf tubes containing 200 μL PBS. […] The plates were then imaged and colonies counted on a ColonyDoc-It™ Imaging station (UVP, Analytik Jena, Beverly, Mass., USA).
The subject of series [11] is planktonic growth of Staphylococcus.
Procedure: An overnight culture of S. aureus (ATCC 29213) was diluted to 1×10^7 cells/mL in tryptic soy broth (TSB) supplemented with 10% human plasma (Innovative Research, Novi, Mich. USA) and added to the wells of an MBEC™-HTP Assay Biofilm Innoculator (Innovotech, Edmonton, AB, Canada). The plate was incubated overnight at 37° C. and shaken at 125 rpm. […] Control wells were without a COMPOUND OF Formula I. The treatment plate was incubated for 24 h at 37° C. after which the lid was removed, rinsed with PBS, and placed in a new 96-well plate containing TSB. The biofilm was removed from the assay lid into the recovery plate wells by sonication, a new plate cover was added, and the viability of the biofilm was determined after 24 h of incubation at 37° C. by reading the OD at 625 nm. Three independent experiments were conducted. Concentrations of interest were followed up with colony forming unit (CFU) recovery and scanning electron microscopy analysis. After conclusion of the MBEC assay, the minimum bactericidal concentration (MBC) was determined. The MBC is the lowest concentration of an antibacterial agent required to kill a particular bacterium. The peg lid from the MBEC assay was removed from the challenge plate and 20 μL of medium from each well of the challenge plate was removed and added to a new sterile 96-well plate filled with 180 μL TSB. […]
Series [12] relates to PKZRSA1 (PKZ18-22-resistant MRSA). Nature of the series: MICs against PKZ18-22-resistant mutant compared to WT MRSA. In kind it is cell-based, Staphylococcus aureus. Here is the method:
as §2

[13] abbreviates: similarly sized construct with gly codon but lacking the specifier loop.
Setting [14] is: wild-type truncated glyQS stem I with the specifier loop.

The structures appear in SMILES notation. ≈ marks a conversion by molar mass, not a printed value. Marks after values point to notes of the source that are not given here.

A word on the cell viability: it is the share of living cells, or the viability signal relative to a control. A low value points to more harm to the cells. `Cc1sc(NC(=O)C2C3CCC(C3)C2C(=O)O)nc1-c1ccc(C(C)C)cc1` (centres unmarked) [PKZ18-00]: the “fold lower MIC in minimal versus rich media” value in the series on S. aureus 4220 (S. aureus 4220) is reported as 4 fold; in the series with B. subtilis 168 [5] (B. subtilis 168) it was 8 fold. Also, in the series on S. aureus 4220 (S. aureus 4220, minimal media), the “MIC against S. aureus in minimal media” value is 16^a μg/ml. Also, the “MIC against S. aureus in rich media” value against S. aureus 4220 (S. aureus 4220, rich media) is 64^a μg/ml. In addition, the redox activity result in series [1] was “near-total reduction”; in [2] (128 μg/ml, 48 hours), “near-total reduction”. Further, the cellular redox activity entry is “increased” in [2] (48 hours) and “decreased” in series [2] (72 hours). For the same compound, the T-Box targeting result with glyQS T-box (Table 1) and with glyQS T-box (Table 2) was “Yes” in each case. The MIC E. coli with E. coli is > 256 µg/mL. For the same compound, in the series with E. coli (value in parentheses), the MBC E. coli is > 256 µg/mL. Besides, the dissociation constant entry in series [3] and in series [6] was “low micromolar” throughout. Moreover, the results for the resistant colonies result in the series with B. subtilis 168 [4] and in the series on S. aureus N315 (MRSA) were “did not generate resistant colonies” and “No PKZ18-resistant colonies were found”, respectively. Moreover, in the series with B. subtilis 168 [5] (minimal media), the “MIC against B. subtilis 168 in minimal media” value was found to be 8 µg/mL (≈ 20.1 µM). Besides, the “MIC against B. subtilis 168 in rich media” value in the series on B. subtilis 168 [5] (rich media) was determined as 64 µg/mL (≈ 161 µM). Besides, the cell viability in series [7] (64 μg/ml) was determined as 76%. The macrophage viability in series [7] (128 μg/ml) was determined as 25%. Besides, the “MIC S. aureus N315” value in [8] (Table 2) is 64 µg/mL (≈ 161 µM). In series [8] (Table 2, value in parentheses), the “MBC S. aureus N315” value is > 256 µg/mL. The “change in melting temperature ΔTm” value was −0.33 in series [9] (setting [13]) and −18.52 °C in series [9] (setting [14]). Further, the entries for the “free energy ΔΔG” value in series [9] (setting [13]) and in series [9] (setting [14]) were “+0.22” and “+3.41 kcal mol^−1”, respectively.
Consider `CN[C@H](CC(C)C)C(=O)N[C@H]1C(=O)N[C@@H](CC(N)=O)C(=O)N[C@H]2C(=O)N[C@H]3C(=O)N[C@H](C(=O)N[C@H](C(=O)O)c4cc(O)cc(O)c4-c4cc3ccc4O)[C@H](O)c3ccc(c(Cl)c3)Oc3cc2cc(c3O[C@@H]2O[C@H](CO)[C@@H](O)[C@H](O)[C@H]2O[C@H]2C[C@](C)(N)[C@H](O)[C@H](C)O2)Oc2ccc(cc2Cl)[C@H]1O` [vancomycin], for which the “MBEC efficacy at highest concentration” value in series [10] was “not effective”. The “planktonic growth over a range of concentrations” value in [11] is reported as “no growth”. Moreover, the “fold increase in MIC against PKZRSA1 compared to WT” value in series [12] is reported as 2 fold.
